Starred links: 1 amine or outer side, 2 acyl side, 3 side chain; linkers in the order of their positions; H or OH if unused. Non-standard residues stand in square brackets, D forms with d. Residues, ends and D or L forms follow the SMILES beside them. Groups on a side chain read outwards from the residue. *: point of attachment. C18 diacid = O=C(O)CCCCCCCCCCCCCCCCC(=O)*; C17 diacid = O=C(O)CCCCCCCCCCCCCCCC(=O)*; γGlu = O=C(O)[C@H](CCC(=O)[*:2])N[*:1]; NMeY = CN[C@@H](Cc1ccc(O)cc1)C(=O)O; AEEA = NCCOCCOCC(=O)O; Aib = CC(C)(N)C(=O)O
Assay: physchem
Description: Solubility of the GIPR peptides may be determined by dissolution in a phosphate buffer followed by quantitation using liquid chromatography, for example, High Performance Liquid Chromatogry (HPLC). An illustrative method is provided. For determination of the solubility of the GIPr agonist peptides, 3 mg of peptides are weighted out in a small glass vial. 100 μL of 200 mM Phosphate buffer pH 7.4 are added and the vial is sonicated/votexed as necessary for a maximum of 1 min. […] If insoluble material is observed in the tube the addition of 100 μL of buffer and mixing is repeated until complete dissolution.
3 mg of peptides are weighted out in a small glass vial. 100 uL of 200 mM Phosphate buffer pH 7.4 are added and the vial is sonicated/votexed as necessary for a maximum of 1 min. […] If insoluble material is observed in the tube the addition of 100 uL of buffer and mixing is repeated until complete dissolution.

[1] = pH 7.4, aqueous buffer, pH 7.4 Phosphate Buffer - Solubility, 200 mM Phosphate buffer pH 7.4

Compound: CC[C@H](C)[C@H](NC(=O)[C@H](CO)NC(=O)[C@H](Cc1ccc(O)cc1)NC(=O)[C@H](CC(=O)O)NC(=O)[C@H](CO)NC(=O)[C@@H](NC(=O)[C@H](Cc1ccccc1)NC(=O)[C@@H](NC(=O)CNC(=O)[C@H](CCC(=O)O)NC(=O)C(C)(C)NC(=O)[C@H](Cc1ccc(O)cc1)NC)[C@@H](C)O)[C@@H](C)CC)C(=O)N[C@@H](C)C(=O)N[C@@H](CCCCNC(=O)COCCOCCNC(=O)COCCOCCNC(=O)CC[C@H](NC(=O)CC[C@H](NC(=O)CCCCCCCCCCCCCCCC(=O)O)C(=O)O)C(=O)O)C(=O)N[C@@H](CC(=O)O)C(=O)N[C@@H](CCCNC(=N)N)C(=O)NC(C)(C)C(=O)N[C@@H](C)C(=O)N[C@@H](CCC(N)=O)C(=O)NC(C)(C)C(=O)N[C@@H](CC(N)=O)C(=O)N[C@@H](Cc1ccccc1)C(=O)N[C@H](C(=O)N[C@@H](CC(N)=O)C(=O)N[C@@H](Cc1c[nH]c2ccccc12)C(=O)N[C@@H](CC(C)C)C(=O)N[C@@H](CC(C)C)C(=O)N[C@@H](C)C(=O)N[C@@H](CCC(N)=O)C(=O)N[C@@H](CCCNC(=N)N)C(=O)O)C(C)C [Compound 7] (H-[NMeY][Aib]EGTFISDYSIAK([AEEA-AEEA-γGlu-γGlu-C17 diacid])DR[Aib]AQ[Aib]NFVNWLLAQR-OH)
- solubility (pH 7.4): ≥ 15 mg/mL
- solubility (pH 7.4, aqueous buffer): ≥ 30 mg/mL

Compound: CC[C@H](C)[C@H](NC(=O)[C@H](CO)NC(=O)[C@H](Cc1ccc(O)cc1)NC(=O)[C@H](CC(=O)O)NC(=O)[C@H](CO)NC(=O)[C@@H](NC(=O)[C@H](Cc1ccccc1)NC(=O)[C@@H](NC(=O)CNC(=O)[C@H](CCC(=O)O)NC(=O)C(C)(C)NC(=O)[C@H](Cc1ccc(O)cc1)NC)[C@@H](C)O)[C@@H](C)CC)C(=O)N[C@@H](C)C(=O)N[C@@H](CC(C)C)C(=O)N[C@@H](CC(=O)O)C(=O)N[C@@H](CCCNC(=N)N)C(=O)N[C@@H](CCCCNC(=O)CNC(=O)CNC(=O)CNC(=O)CNC(=O)CNC(=O)CC[C@H](NC(=O)CCCCCCCCCCCCCCCC(=O)O)C(=O)O)C(=O)N[C@@H](Cc1c[nH]cn1)C(=O)N[C@@H](CCC(N)=O)C(=O)NC(C)(C)C(=O)N[C@@H](CC(N)=O)C(=O)N[C@@H](Cc1ccccc1)C(=O)N[C@H](C(=O)N[C@@H](CC(N)=O)C(=O)N[C@@H](Cc1c[nH]c2ccccc12)C(=O)N[C@@H](CC(C)C)C(=O)N[C@@H](CC(C)C)C(=O)N[C@@H](C)C(=O)N[C@@H](CCC(N)=O)C(=O)N[C@@H](CCCNC(=N)N)C(=O)N1CCC[C@H]1C(=O)N[C@@H](CO)C(=O)N[C@@H](CO)C(=O)NCC(=O)N[C@@H](C)C(=O)N1CCC[C@H]1C(=O)N1CCC[C@H]1C(=O)N1CCC[C@H]1C(=O)N[C@@H](CO)C(=O)O)C(C)C [Compound 20]
- solubility [1]: ≥ 15 mg/mL

Compound: CC[C@H](C)[C@H](NC(=O)[C@H](Cc1ccccc1)NC(=O)[C@@H](NC(=O)CNC(=O)[C@H](CCC(=O)O)NC(=O)C(C)(C)NC(=O)[C@H](Cc1ccc(O)cc1)NC)[C@@H](C)O)C(=O)N[C@@H](CO)C(=O)N[C@@H](CC(=O)O)C(=O)N[C@@H](Cc1ccc(O)cc1)C(=O)N[C@@H](CO)C(=O)N[C@H](C(=O)NC(C)(C)C(=O)N[C@@H](CC(C)C)C(=O)N[C@@H](CC(=O)O)C(=O)N[C@@H](CCCNC(=N)N)C(=O)N[C@@H](CCCCNC(=O)COCCOCCNC(=O)COCCOCCNC(=O)CC[C@H](NC(=O)CC[C@H](NC(=O)CCCCCCCCCCCCCCCC(=O)O)C(=O)O)C(=O)O)C(=O)N[C@@H](C)C(=O)N[C@@H](CCC(N)=O)C(=O)NC(C)(C)C(=O)N[C@@H](CC(N)=O)C(=O)N[C@@H](Cc1ccccc1)C(=O)N[C@H](C(=O)N[C@@H](CC(N)=O)C(=O)N[C@@H](Cc1c[nH]c2ccccc12)C(=O)N[C@@H](CC(C)C)C(=O)N[C@@H](CC(C)C)C(=O)N[C@@H](C)C(=O)N[C@@H](CCC(N)=O)C(=O)N[C@@H](CO)C(=O)N1CCC[C@H]1C(=O)N[C@@H](CO)C(=O)N[C@@H](CO)C(=O)NCC(=O)N[C@@H](C)C(=O)N1CCC[C@H]1C(=O)N1CCC[C@H]1C(=O)N1CCC[C@H]1C(=O)N[C@@H](CO)C(N)=O)C(C)C)[C@@H](C)CC [Compound 270] (H-[NMeY][Aib]EGTFISDYSI[Aib]LDRK([AEEA-AEEA-γGlu-γGlu-C17 diacid])AQ[Aib]NFVNWLLAQSPSSGAPPPS-NH2)
- solubility [1]: ≥ 7.5 mg/mL

Compound: CC[C@H](C)[C@H](NC(=O)[C@H](CO)NC(=O)[C@H](Cc1ccc(O)cc1)NC(=O)[C@H](CC(=O)O)NC(=O)[C@H](CO)NC(=O)[C@@H](NC(=O)[C@H](Cc1ccccc1)NC(=O)[C@@H](NC(=O)CNC(=O)[C@H](CCC(=O)O)NC(=O)C(C)(C)NC(=O)[C@H](Cc1ccc(O)cc1)NC)[C@@H](C)O)[C@@H](C)CC)C(=O)N[C@@H](C)C(=O)N[C@@H](CC(C)C)C(=O)N[C@@H](CC(=O)O)C(=O)N[C@@H](CCCNC(=N)N)C(=O)NC(C)(C)C(=O)N[C@@H](CCCCNC(=O)COCCOCCNC(=O)COCCOCCNC(=O)CC[C@H](NC(=O)CC[C@H](NC(=O)CCCCCCCCCCCCCCCC(=O)O)C(=O)O)C(=O)O)C(=O)N[C@@H](CCC(N)=O)C(=O)NC(C)(C)C(=O)N[C@@H](CC(N)=O)C(=O)N[C@@H](Cc1ccccc1)C(=O)N[C@H](C(=O)N[C@@H](CC(N)=O)C(=O)N[C@@H](Cc1c[nH]c2ccccc12)C(=O)N[C@@H](CC(C)C)C(=O)N[C@@H](CC(C)C)C(=O)N[C@@H](C)C(=O)N[C@@H](CCC(N)=O)C(=O)N[C@@H](CCCNC(=N)N)C(N)=O)C(C)C [Compound 256] (H-[NMeY][Aib]EGTFISDYSIALDR[Aib]K([AEEA-AEEA-γGlu-γGlu-C17 diacid])Q[Aib]NFVNWLLAQR-NH2)
- solubility (pH 7.4, aqueous buffer): ≥ 6 mg/mL

Compound: CC[C@H](C)[C@H](NC(=O)[C@H](CCCCN)NC(=O)[C@H](CC(=O)O)NC(=O)[C@H](CC(C)C)NC(=O)[C@H](C)NC(=O)[C@@H](NC(=O)[C@H](CO)NC(=O)[C@H](Cc1ccc(O)cc1)NC(=O)[C@H](CC(=O)O)NC(=O)[C@H](CO)NC(=O)[C@@H](NC(=O)[C@H](Cc1ccccc1)NC(=O)[C@@H](NC(=O)CNC(=O)[C@H](CCC(=O)O)NC(=O)C(C)(C)NC(=O)[C@@H](N)Cc1ccc(O)cc1)[C@@H](C)O)[C@@H](C)CC)[C@@H](C)CC)C(=O)N[C@@H](C)C(=O)N[C@@H](CCC(N)=O)C(=O)NC(C)(C)C(=O)N[C@@H](CCCCNC(=O)COCCOCCNC(=O)COCCOCCNC(=O)CC[C@H](NC(=O)CC[C@H](NC(=O)CCCCCCCCCCCCCCCC(=O)O)C(=O)O)C(=O)O)C(=O)N[C@@H](Cc1ccccc1)C(=O)N[C@H](C(=O)N[C@@H](CCC(=O)O)C(=O)N[C@@H](Cc1c[nH]c2ccccc12)C(=O)N[C@@H](CC(C)C)C(=O)N[C@@H](CC(C)C)C(=O)N[C@@H](C)C(=O)N[C@@H](CCC(N)=O)C(=O)N[C@@H](CCCNC(=N)N)C(=O)NCC(=O)O)C(C)C [Compound 132] (H-Y[Aib]EGTFISDYSIALDKIAQ[Aib]K([AEEA-AEEA-γGlu-γGlu-C17 diacid])FVEWLLAQRG-OH)
- solubility (pH 7.4): ≥ 15 mg/mL
- solubility (pH 7.4, aqueous buffer): ≥ 30 mg/mL

Compound: CC[C@H](C)[C@H](NC(=O)[C@H](CO)NC(=O)[C@H](Cc1ccc(O)cc1)NC(=O)[C@H](CC(=O)O)NC(=O)[C@H](CO)NC(=O)[C@@H](NC(=O)[C@H](Cc1ccccc1)NC(=O)[C@@H](NC(=O)CNC(=O)[C@H](CCC(=O)O)NC(=O)C(C)(C)NC(=O)[C@H](Cc1ccc(O)cc1)NC)[C@@H](C)O)[C@@H](C)CC)C(=O)N[C@@H](C)C(=O)N[C@@H](CCCCNC(=O)CNC(=O)CNC(=O)CNC(=O)CNC(=O)CNC(=O)CC[C@H](NC(=O)CCCCCCCCCCCCCCCCC(=O)O)C(=O)O)C(=O)N[C@@H](CC(=O)O)C(=O)N[C@@H](CCCNC(=N)N)C(=O)NC(C)(C)C(=O)N[C@@H](C)C(=O)N[C@@H](CCC(N)=O)C(=O)NC(C)(C)C(=O)N[C@@H](CC(=O)O)C(=O)N[C@@H](Cc1ccccc1)C(=O)N[C@H](C(=O)N[C@@H](CC(N)=O)C(=O)N[C@@H](Cc1c[nH]c2ccccc12)C(=O)N[C@@H](CC(C)C)C(=O)N[C@@H](CC(C)C)C(=O)N[C@@H](C)C(=O)N[C@@H](CCC(N)=O)C(=O)N[C@@H](CCCNC(=N)N)C(=O)N1CCC[C@H]1C(=O)N[C@@H](CO)C(=O)N[C@@H](CO)C(=O)NCC(=O)N[C@@H](C)C(=O)N1CCC[C@H]1C(=O)N1CCC[C@H]1C(=O)N1CCC[C@H]1C(=O)N[C@@H](CO)C(N)=O)C(C)C [Compound 24]
- solubility [1]: ≥ 30 mg/mL
- solubility (pH 7.4, solubility in phosphate buffer at pH 7.4, 200 mM phosphate buffer pH 7.4): ≥ 15 mg/mL

Compound: CC[C@H](C)[C@H](NC(=O)[C@H](Cc1ccccc1)NC(=O)[C@@H](NC(=O)CNC(=O)[C@H](CCC(=O)O)NC(=O)C(C)(C)NC(=O)[C@H](Cc1ccc(O)cc1)NC)[C@@H](C)O)C(=O)N[C@@H](CO)C(=O)N[C@@H](CC(=O)O)C(=O)N[C@@H](Cc1ccc(O)cc1)C(=O)N[C@@H](CO)C(=O)N[C@H](C(=O)NC(C)(C)C(=O)N[C@@H](CC(C)C)C(=O)N[C@@H](CC(=O)O)C(=O)N[C@@H](CCCNC(=N)N)C(=O)NC(C)(C)C(=O)N[C@@H](C)C(=O)N[C@@H](CCC(N)=O)C(=O)NC(C)(C)C(=O)N[C@@H](CCCCNC(=O)COCCOCCNC(=O)COCCOCCNC(=O)CC[C@H](NC(=O)CC[C@H](NC(=O)CCCCCCCCCCCCCCCCC(=O)O)C(=O)O)C(=O)O)C(=O)N[C@@H](Cc1ccccc1)C(=O)N[C@H](C(=O)N[C@@H](CC(N)=O)C(=O)N[C@@H](Cc1c[nH]c2ccccc12)C(=O)N[C@@H](CC(C)C)C(=O)N[C@@H](CC(C)C)C(=O)N[C@@H](C)C(=O)N[C@@H](CCC(N)=O)C(=O)N[C@@H](CCCNC(=N)N)C(N)=O)C(C)C)[C@@H](C)CC [Compound 267] (H-[NMeY][Aib]EGTFISDYSI[Aib]LDR[Aib]AQ[Aib]K([AEEA-AEEA-γGlu-γGlu-C18 diacid])FVNWLLAQR-NH2)
- solubility (pH 7.4, aqueous buffer): < 6 mg/mL
